A word on the pEC50: it is −log10 of the EC50, conventionally taken in molar units. What is called Emax is the size of the effect at its maximum, as opposed to the concentration needed.

pEC50: −log10 of the molar value. “And” between values parts separate entries of the source, which are not always exact repeats. Equal entries are not always repeated. “Also recorded” adds a separate entry of the source. Where two headings read alike, the source gives them in different places.

The record followed here is publication PMC6237183 (Nature structural & molecular biology, 2018).

Assay [1] addresses T1, 5-HT2BR L362F^7.35 (Homo sapiens, UniProt P41595, L362F). Conditions: L362F^7.35 mutant.
A further assay concerns the target 5-HT2BR L362A^7.35 (Homo sapiens, UniProt P41595, L362A). Nature of the assay: Gq-mediated calcium flux FLIPR assay. Conditions: L362A^7.35 mutant, % 5-HT.
Assay [2] addresses T1, 5-HT2BR L362F^7.35. Kind of assay: BRET β-arrestin2 recruitment assay. Conditions: L362F^7.35 mutant. (In BRET a luciferase serves as donor, and the signal depends on an acceptor being close.)
Assay [3] has as its target T1, 5-HT2BR L362F^7.35. Kind of assay: [3H]-LSD dissociation radioligand binding assay. Conditions: L362F^7.35 vs WT.
In a further assay the target is 5-HT2BR wild-type (Homo sapiens, UniProt P41595). Nature of the assay: Gq-mediated calcium flux FLIPR assay. Conditions: for Gq calcium flux Emax: normalized to percent 5-HT stimulation; for pEC50: agonist mode, N=3. For orientation: Calcium flux is commonly read through the fluorescence of an indicator in the cells.
In assay [4] the target is T2, 5-HT2BR (Homo sapiens, UniProt P41595). Kind of assay: BRET β-arrestin2 recruitment assay.
In another assay the target is 5-HT2BR WT (Homo sapiens, UniProt P41595). Nature of the assay: β-Arrestin2 recruitment Tango assay.
In assay [5] the target is T1, 5-HT2BR L362F^7.35. Kind of assay: Gq-mediated calcium flux FLIPR assay. Conditions: L362F^7.35 mutant.
Assay [6] concerns the target T2, 5-HT2BR. Nature of the assay: Phosphoinositide. The class given is cell-based.
The target in assay [7] is T3, 5-HT2BR A225S^5.46 (Homo sapiens, UniProt P41595, A225S). Kind of assay: Gq-mediated calcium flux FLIPR assay.
For assay [8], the target named is T4, 5-HT2BR T140S^3.37 (Homo sapiens, UniProt P41595, T140S). Kind of assay: [3H]-LSD competitive radioligand binding. Conditions: T140S^3.37 mutant, relative to wild-type.
Assay [9] concerns the target T5, 5-HT2BR A225G^5.46 (Homo sapiens, UniProt P41595, A225G). Kind of assay: Gq-mediated calcium flux FLIPR assay. To be noted: for Emax: read-out: Gq calcium flux Emax.
Assay [10] has as its target T3, 5-HT2BR A225S^5.46. Kind of assay: [3H]-LSD competitive radioligand binding. Conditions: A225S^5.46 mutant, relative to wild-type.
Assay [11] addresses T6, 5-HT2BR T140A^3.37 (Homo sapiens, UniProt P41595, T140A). Kind of assay: [3H]-LSD competitive radioligand binding. To be noted: T140A^3.37 mutant, relative to wild-type.
For assay [12], the target named is T7, 5-HT2BR T140V^3.37 (Homo sapiens, UniProt P41595, T140V). Kind of assay: [3H]-LSD competitive radioligand binding. Conditions: T140V^3.37 mutant, relative to wild-type.
The target in assay [13] is T6, 5-HT2BR T140A^3.37. To be noted: T140A^3.37 mutant, relative to wild-type.
Assay [14] concerns the target T4, 5-HT2BR T140S^3.37. Nature of the assay: Gq-mediated calcium flux FLIPR assay.
In assay [15] the target is T6, 5-HT2BR T140A^3.37. Nature of the assay: β-Arrestin2 recruitment Tango assay. To be noted: T140A^3.37 mutant. In general terms: Activated receptors often draw arrestin, which recruitment assays turn into a signal.
The target of assay [16] is T5, 5-HT2BR A225G^5.46. Nature of the assay: [3H]-LSD competitive radioligand binding. To be noted: A225G^5.46 mutant, relative to wild-type.
In assay [17] the target is T7, 5-HT2BR T140V^3.37. To be noted: T140V^3.37 mutant, relative to wild-type.
Setting [18] is: read-out: Gq calcium flux EC50, 5-HT2BR wild-type.

T4 sequence (P41595 whole entry T140S): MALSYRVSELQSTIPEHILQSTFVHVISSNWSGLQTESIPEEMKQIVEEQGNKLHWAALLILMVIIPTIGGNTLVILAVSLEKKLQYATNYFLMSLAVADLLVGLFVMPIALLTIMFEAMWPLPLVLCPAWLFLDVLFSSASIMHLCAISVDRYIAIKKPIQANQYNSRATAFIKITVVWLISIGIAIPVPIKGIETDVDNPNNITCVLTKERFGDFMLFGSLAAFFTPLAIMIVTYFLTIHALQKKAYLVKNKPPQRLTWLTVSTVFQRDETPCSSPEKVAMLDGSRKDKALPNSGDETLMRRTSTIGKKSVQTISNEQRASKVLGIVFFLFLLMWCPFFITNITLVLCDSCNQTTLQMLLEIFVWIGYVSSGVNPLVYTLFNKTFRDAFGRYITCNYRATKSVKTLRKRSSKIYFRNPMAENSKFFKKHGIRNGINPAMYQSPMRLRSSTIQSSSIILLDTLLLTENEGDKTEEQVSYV
T3 sequence (P41595 whole entry A225S): as the sequence (P41595 whole entry T140S) above, with S140T, A225S counted along it
T6 sequence (P41595 whole entry T140A): as the sequence (P41595 whole entry T140S) above, with S140A counted along it
5-HT2BR WT, sequence (P41595 whole entry): as the sequence (P41595 whole entry T140S) above, with S140T counted along it
T2 sequence (P41595 whole entry): as the sequence (P41595 whole entry T140S) above, with S140T counted along it
5-HT2BR wild-type, sequence (P41595 whole entry): as the sequence (P41595 whole entry T140S) above, with S140T counted along it
T5 sequence (P41595 whole entry A225G): as the sequence (P41595 whole entry T140S) above, with S140T, A225G counted along it
T7 sequence (P41595 whole entry T140V): as the sequence (P41595 whole entry T140S) above, with S140V counted along it
T1 sequence (P41595 whole entry L362F): as the sequence (P41595 whole entry T140S) above, with S140T, L362F counted along it
5-HT2BR L362A^7.35, sequence (P41595 whole entry L362A): as the sequence (P41595 whole entry T140S) above, with S140T, L362A counted along it

On to `CCN(CC)C(=O)[C@@H]1C=C2c3cccc4[nH]cc(c34)C[C@H]2N(C)C1` [LSD, lysergic acid diethylamide], for which the “β-arrestin recruitment agonism” value on 5-HT2BR L362F^7.35 [1] is “abolished”. Further, the “Gq calcium flux Emax” value on 5-HT2BR L362A^7.35 was determined as 67%. In addition, the “time-dependent recruitment of β-arrestin” value at 5-HT2BR L362F^7.35 [2] is given as “attenuated”. In addition, at 5-HT2BR L362F^7.35 [3], the “faster dissociation rate compared to 5-HT2BR WT” value is “greater than 10 fold”. On 5-HT2BR wild-type (5-HT2BR wild-type), the “Gq calcium flux agonist activity” value is listed as “Gq partial agonists”; the “Gq calcium flux Emax” value is 82% and 79%.
Consider `COc1ccc(CC2NCCc3c2[nH]c2ccccc32)c(Cl)c1OC` (centres unmarked) [des-methyl LY266097 analog], for which, on 5-HT2BR wild-type (5-HT2BR wild-type), the “Gq calcium flux Emax” value worked out at 93%. In addition, on 5-HT2BR wild-type (setting [18]), the pEC50 is 7.70.
With `COc1ccc(CC2NCCc3c2[nH]c2ccc(C)cc32)c(Cl)c1OC` (centres unmarked) [LY266097], on 5-HT2BR [4], the “β-arrestin2 antagonism by BRET” value is “potent β-arrestin2 antagonism”. For the same compound, on 5-HT2BR [4] (real-time, across specific time points), the “β-arrestin2 recruitment by BRET” value is recorded as “At no tested time point did LY266097 display β-arrestin2 recruitment”. Moreover, at 5-HT2BR WT (5-HT2BR WT), the “β-arrestin2 recruitment activity” value was “without detectable β-arrestin2 activity; also recorded: no β-arrestin2 recruitment activity”. The “Gq agonist activity” value at 5-HT2BR L362F^7.35 [5] was “abolished”. For the same compound, on 5-HT2BR [6], the “Gq function via PI hydrolysis” value is “Gq partial agonism”. Further, at 5-HT2BR wild-type (5-HT2BR wild-type), the “Gq calcium flux agonist activity” value is on record as “modest Gq partial agonism”; the “Gq calcium flux Emax” value is 62% and 54%. For the same compound, on 5-HT2BR wild-type (setting [18]), the pEC50 was 7.43 and 7.39.
As to `Cc1ccc2[nH]c3c(c2c1)CCNC3Cc1ccccc1` (centres unmarked) [unsubstituted Benzyl], on 5-HT2BR wild-type (5-HT2BR wild-type), the “Gq calcium flux agonist activity” value is “no detectible Gq agonist activity”.
Take `CC[C@@H](CO)NC(=O)[C@@H]1C=C2c3cccc4[nH]cc(c34)C[C@H]2N(C)C1` [methylergonovine]: the negative logarithm of the EC50 (pEC50) was 7.82 at 5-HT2BR A225S^5.46 [7]; 8.92 at 5-HT2BR WT; 7.92 on 5-HT2BR A225G^5.46 [9] (Gq calcium flux EC50, A225G^5.46 mutant); 7.51 and 7.72 and 7.64 and 7.68 at 5-HT2BR wild-type (Gq calcium flux EC50, 5-HT2BR wild-type); 7.74 on 5-HT2BR T140S^3.37 [14]. In addition, the Emax on 5-HT2BR A225S^5.46 [7] (read-out: Gq calcium flux Emax) turned out to be 58%; on 5-HT2BR A225G^5.46 [9], 55%; at 5-HT2BR T140S^3.37 [14] (read-out: Gq calcium flux Emax), 64%. In addition, the “binding affinity” value at 5-HT2BR T140S^3.37 [8] is given as “spared”; at 5-HT2BR A225S^5.46 [10], “did not substantially affect”; at 5-HT2BR T140A^3.37 [11], “significantly diminished”; at 5-HT2BR T140V^3.37 [12] it was “significantly diminished”; on 5-HT2BR A225G^5.46 [16] it was “did not substantially affect”. Besides, at 5-HT2BR wild-type (5-HT2BR wild-type), the “Gq calcium flux agonist activity” value is on record as “Gq partial agonists”. Further, at 5-HT2BR wild-type (5-HT2BR wild-type), the “Gq calcium flux Emax” value amounted to 64%. Further, the “Gq calcium flux agonism” value on 5-HT2BR T140A^3.37 [13] and at 5-HT2BR T140V^3.37 [17] was “significantly diminished” throughout. In addition, the “β-arrestin2 recruitment” value on 5-HT2BR T140A^3.37 [15] is listed as “failed to recruit β-arrestin2”.
Consider `CN1C[C@H](C(=O)N[C@]2(C)O[C@@]3(O)[C@@H]4CCCN4C(=O)[C@H](Cc4ccccc4)N3C2=O)C=C2c3cccc4[nH]cc(c34)C[C@H]21` [ERG, ergotamine], for which the “Gq calcium flux agonist activity” value on 5-HT2BR wild-type (5-HT2BR wild-type) is “Gq partial agonists”.
Regarding `Cc1ccc2[nH]c3c(c2c1)CCNC3Cc1ccccc1Cl` (centres unmarked) [2-ClBenzyl], the “Gq calcium flux Emax” value on 5-HT2BR wild-type (5-HT2BR wild-type) is listed as 28%. The pEC50 at 5-HT2BR wild-type (setting [18]) was 7.46.
With `CC[C@@H](CO)NC(=O)[C@@H]1C=C2c3cccc4c3c(cn4C)C[C@H]2N(C)C1` [methysergide], the Emax on 5-HT2BR A225G^5.46 [9] turned out to be 54%. In addition, the “Gq calcium flux agonist activity” value on 5-HT2BR wild-type (5-HT2BR wild-type) was “lack of agonist activity”. For the same compound, at 5-HT2BR T140V^3.37 [17], the “Gq calcium flux agonism” value is listed as “failed to demonstrate any measureable Gq agonist activity”.
